Where a name gives a salt, the structure may show the parent alone. ± gives the uncertainty stated by the source.
System: HepG2 (L1.3 5'UTR promoter firefly luciferase reporter)
Experiment: L1 promoter activity (FLuc/RLuc) relative to DMSO vehicle control (% of control); higher = stronger L1 promoter activation
Method: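 HepG2 cells in 96-well plates were cotransfected with pGL4.11-L1.3 5'UTR (firefly luciferase driven by the human L1.3 5'UTR promoter) and pGL4.74 (HSV-TK Renilla luciferase internal control), then treated with compound for 6 or 24 h. FLuc/RLuc ratio was normalised to the DMSO vehicle control (% of control); concentrations where RLuc fell below 50% of control were excluded (N.D.). Mean of at least two independent experiments in duplicate or quadruplicate.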

[1] = concentration (uM unless unit written): 5, treatment time: 6 h
[2] = concentration (uM unless unit written): 50, treatment time: 6 h
[3] = concentration (uM unless unit written): 50, treatment time: 24 h
[4] = concentration (uM unless unit written): 100, treatment time: 6 h
[5] = concentration (uM unless unit written): 100, treatment time: 24 h
[6] = concentration (uM unless unit written): 500, treatment time: 6 h
[7] = concentration (uM unless unit written): 500, treatment time: 24 h
[8] = concentration (uM unless unit written): 125, treatment time: 6 h
[9] = concentration (uM unless unit written): 125, treatment time: 24 h
[10] = concentration (uM unless unit written): 250, treatment time: 6 h
[11] = concentration (uM unless unit written): 250, treatment time: 24 h
[12] = concentration (uM unless unit written): 10, treatment time: 6 h
[13] = concentration (uM unless unit written): 10, treatment time: 24 h

CNc1ccc2oc(C[C@H]3O[C@@]4(CC[C@H]3C)O[C@H]([C@H](C)C(=O)c3ccc[nH]3)[C@H](C)C[C@H]4C)nc2c1C(=O)O
L1 promoter activity (concentration (uM unless unit written): 0.75, treatment time: 6 h): 57.4 ± 16 | L1 promoter activity (concentration (uM unless unit written): 0.75, treatment time: 24 h): 57.4 ± 4.2 | L1 promoter activity (concentration (uM unless unit written): 1.5, treatment time: 6 h): 52.4 ± 8.8 | L1 promoter activity [1]: 54.4 ± 4.2

Cc1cccc(Nc2cc(Cl)nc(SCC(=O)O)n2)c1C
L1 promoter activity (concentration (uM unless unit written): 200, treatment time: 6 h): 98.9 ± 11 | L1 promoter activity (concentration (uM unless unit written): 200, treatment time: 24 h): 82.7 ± 5.2

CN(C)CCC(c1ccc(Cl)cc1)c1ccccn1 (racemic) [(±)-Chlorpheniramine maleate salt]
L1 promoter activity [2]: 91.1 ± 9.6 | L1 promoter activity [3]: 96.2 ± 19 | L1 promoter activity [4]: 101 ± 9.2 | L1 promoter activity [5]: 86.4 ± 8.2 | L1 promoter activity [6]: 84 ± 3.3

CN1CC=C(c2ccccc2)CC1 [1-Methyl-4-phenyl-1,2,3,6-tetrahydropyridine]
L1 promoter activity [6]: 115 ± 11 | L1 promoter activity [7]: 121 ± 19

COC1=C(OC)C(=O)c2ccccc2C1=O [2,3-Dimethoxy-1,4-naphthoquinone]
L1 promoter activity (concentration (uM unless unit written): 15, treatment time: 6 h): 119 ± 8.7 | L1 promoter activity (concentration (uM unless unit written): 30, treatment time: 6 h): 119 ± 8.1

O=C(O)CC[N+](=O)[O-] [3-Nitropropionic acid]
L1 promoter activity [8]: 114 ± 5 | L1 promoter activity [9]: 95.1 ± 5.4 | L1 promoter activity [10]: 112 ± 14 | L1 promoter activity [11]: 94.2 ± 18 | L1 promoter activity [6]: 119 ± 14 | L1 promoter activity [7]: 80.7 ± 11

C=CCCC(=O)O [4-Pentenoic acid]
L1 promoter activity (concentration (uM unless unit written): 25000, treatment time: 6 h): 102 ± 2.3 | L1 promoter activity (concentration (uM unless unit written): 25000, treatment time: 24 h): 28.2 ± 0.94 | L1 promoter activity (concentration (uM unless unit written): 50000, treatment time: 6 h): 99.1 ± 4.5 | L1 promoter activity (concentration (uM unless unit written): 50000, treatment time: 24 h): 22.5 ± 1.7 | L1 promoter activity (concentration (uM unless unit written): 100000, treatment time: 6 h): 101 ± 26 | L1 promoter activity (concentration (uM unless unit written): 100000, treatment time: 24 h): 25.8 ± 2.7

Nc1nc(=S)c2[nH]cnc2[nH]1 [6-Thioguanine]
L1 promoter activity (concentration (uM unless unit written): 2.5, treatment time: 6 h): 126 ± 16 | L1 promoter activity (concentration (uM unless unit written): 2.5, treatment time: 24 h): 98.6 ± 12 | L1 promoter activity [1]: 108 ± 17 | L1 promoter activity (concentration (uM unless unit written): 5, treatment time: 24 h): 102 ± 14 | L1 promoter activity [12]: 104 ± 4.2 | L1 promoter activity [13]: 97.3 ± 11

C[C@]12CC[C@@H]3c4ccc(O)cc4CC[C@H]3[C@@H]1CC[C@@H]2O [17β-Estradiol]
L1 promoter activity (concentration (uM unless unit written): 25, treatment time: 6 h): 101 ± 6.5 | L1 promoter activity (concentration (uM unless unit written): 25, treatment time: 24 h): 104 ± 11 | L1 promoter activity [2]: 119 ± 8.4 | L1 promoter activity [3]: 103 ± 16 | L1 promoter activity [4]: 107 ± 7.5 | L1 promoter activity [5]: 102 ± 15

COc1ccc2c(c1OC)C(=O)OC2C1c2c(cc3c(c2OC)OCO3)CCN1C [(S,R)-Noscapine]
L1 promoter activity [8]: 85.3 ± 11 | L1 promoter activity [9]: 40.8 ± 2.2 | L1 promoter activity [10]: 80.1 ± 20 | L1 promoter activity [11]: 33.3 ± 5.6 | L1 promoter activity [6]: 68.2 ± 9.4 | L1 promoter activity [7]: 30.4 ± 4.2

CC(=O)Nc1ccc(O)cc1 [Acetaminophen]
L1 promoter activity (concentration (uM unless unit written): 10000, treatment time: 6 h): 116 ± 12 | L1 promoter activity (concentration (uM unless unit written): 10000, treatment time: 24 h): 131 ± 18 | L1 promoter activity (concentration (uM unless unit written): 20000, treatment time: 6 h): 115 ± 9.1

CC(=O)Oc1ccccc1C(=O)O [Acetylsalicylic acid]
L1 promoter activity (concentration (uM unless unit written): 1, treatment time: 6 h): 103 ± 7.2 | L1 promoter activity (concentration (uM unless unit written): 1, treatment time: 24 h): 98.7 ± 9.5 | L1 promoter activity (concentration (uM unless unit written): 3, treatment time: 6 h): 115 ± 11 | L1 promoter activity (concentration (uM unless unit written): 3, treatment time: 24 h): 88.3 ± 11 | L1 promoter activity [12]: 107 ± 3.8 | L1 promoter activity [13]: 105 ± 9.7 | L1 promoter activity [2]: 106 ± 8.5 | L1 promoter activity [3]: 98.2 ± 29 | L1 promoter activity [4]: 123 ± 23 | L1 promoter activity [10]: 112 ± 13 | L1 promoter activity [11]: 105 ± 8.4 | L1 promoter activity [6]: 114 ± 14 | L1 promoter activity [7]: 86 ± 5.1 | L1 promoter activity (concentration (uM unless unit written): 1000, treatment time: 6 h): 107 ± 12 | L1 promoter activity (concentration (uM unless unit written): 1000, treatment time: 24 h): 91.3 ± 6 | L1 promoter activity (concentration (uM unless unit written): 2000, treatment time: 6 h): 95.4 ± 8 | L1 promoter activity (concentration (uM unless unit written): 2000, treatment time: 24 h): 67.7 ± 5.9 | L1 promoter activity (concentration (uM unless unit written): 3000, treatment time: 6 h): 105 ± 4 | L1 promoter activity (concentration (uM unless unit written): 3000, treatment time: 24 h): 53.3 ± 2.5 | L1 promoter activity (concentration (uM unless unit written): 5000, treatment time: 6 h): 111 ± 15 | L1 promoter activity (concentration (uM unless unit written): 5000, treatment time: 24 h): 40.8 ± 1.2

From the supplement of paper PMC3770661
